Experimental data reported in patent publication US6949516B2, “Dipeptide apoptosis inhibitors and the use thereof” (Cytovia, Inc., priority 1997, dated 2005).

Experiments:
CPP32 = target: T1, CPP32 (Homo sapiens, UniProt P42574); experiment: Fluorometric enzyme assay, CPP32; format: biochemical; details: recombinant CPP32, 37° C., 30 minutes
T1 construct: made in house; host or cells: Sf9 insect cells, baculovirus vector
T1 sequence (P42574 29-175 limits assumed): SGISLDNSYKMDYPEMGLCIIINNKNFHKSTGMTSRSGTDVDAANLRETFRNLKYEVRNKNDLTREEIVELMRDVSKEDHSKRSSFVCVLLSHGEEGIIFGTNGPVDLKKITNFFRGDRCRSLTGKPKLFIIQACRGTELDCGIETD
Procedure: (§1) The activities of Cbz-Val-Asp(OMe)-CH2F and Cbz-Val-Asp-CH2F (free acid) as inhibitors of CPP32, ICE and cathepsin B were measured in a fluorometric enzyme assay. Recombinant CPP32 protein and ICE protein were prepared by expressing DNA clones encoding these enzymes in an insect host cell (sf9 cells) using baculovirus as the vector. See, Webb, N.R. et al., “Expression of proteins using recombinant Baculovirus,” Techniques 2:173-188 (1990). Preparations of native cathepsin were acquired from a commercial source. Enzyme activity was measured using synthetic peptide substrates attached to a fluorogenic leaving group. Cleavage of the synthetic substrate by the enzyme results in a fluorescent signal which is read in a spectrofluorometer or in a fluorometric microtiter plate reader.
CPP32 activity was measured using the following buffer conditions: 100 mM HEPES pH 7.5, with 10% sucrose, 1% CHAPS, 5 mM glutathione, and 5 μM peptide substrate. The peptide substrate consisted of an oligomer with the sequence Asp-Glu-Val-Asp (SEQ ID NO:1) with the fluorogenic compound aminomethylcoumarin conjugated to the C-terminus. The assay for enzyme activity was typically carried out at 37° C. for 30 minutes.

ICE = target: T2, ICE (Homo sapiens, UniProt P29466); experiment: Fluorometric enzyme assay, ICE; format: biochemical; details: recombinant ICE
T2 construct: made in house; host or cells: Sf9 insect cells, baculovirus vector
T2 sequence (P29466 120-297 limits assumed): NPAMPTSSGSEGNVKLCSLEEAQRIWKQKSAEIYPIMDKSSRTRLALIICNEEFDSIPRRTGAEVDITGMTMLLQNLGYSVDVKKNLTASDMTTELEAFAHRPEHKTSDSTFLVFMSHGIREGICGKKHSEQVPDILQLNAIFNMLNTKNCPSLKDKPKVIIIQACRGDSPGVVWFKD
Procedure: as §1

Caspase-3 = target: T3, Caspase-3 (Homo sapiens, UniProt P42574); experiment: Recombinant caspase assay with Ac-DEVD-AMC, caspase-3; format: biochemical; details: 10 μM Ac-DEVD-AMC, 30 minutes at 37° C.
T3 sequence (P42574 29-175 limits assumed): T1 sequence (P42574 29-175 limits assumed)
Procedure: (§2) The inhibitory activity of Cbz-Val-Asp-CH2F in recombinant caspase 3, 6, 7 and 8 obtained from PharMington (a Becton division company, San Diego, Calif.) were measured using Ac-DEVD-AMC (SEQ ID NO:1). The amount of each enzyme per assay was as following: 1 ng caspase3, 15 ng caspase6, 2 ng caspase7 and 60 ng caspase8. The enzyme reaction was conducted in 96-well plate using a caspase buffer (20 mM PIPES, 100 mM NaCl, 10 mM DTT, 1 mM EDTA, 0.1% CHAPS and 10% sucrose, pH 7.2) and the reaction was initiated by adding 10 μM Ac-DEVD-AMC (SEQ ID NO:1) (purchased from Quality Controlled Biochemicals, Inc. Hopkinton, Mass.). Twelve concentrations of Cbz-Val-Asp-CH2F ranged from 30 μM to […] were tested after incubation of the compound with recombinant caspases for 30 minutes at 37° C. […] The data was analyzed using GraphPrism software.

Thrombin = Thrombin (Homo sapiens, UniProt P00734); experiment: Protease inhibition, thrombin; format: biochemical
Excerpt: (§3) Table I lists the IC50 of Cbz-Val-Asp(OMe)-CH2F and Cbz-Val-Asp-CH2F (free acid) for CPP32 and other proteases.

[1] = tested on: DNA laddering in Jurkat cells; experiment: DNA laddering in antiFas-treated Jurkat cells; format: cell-based, human; details: antiFas 100 ng/mL for 4 hours
Excerpt: In the later stages of apoptosis, cells begin to literally fall apart as pieces of the cytoplasm are shed (through blebbing) and the nucleus is disassembled. One of the hallmarks of nuclear disassembly is the cleavage of genomic DNA into nucleosome-sized fragments (termed “DNA laddering”). DNA laddering, like other late stage apoptotic events, is considered to be irreversible, so it is important to determine whether an anti-apoptotic drug can prevent its occurrence.
The ability of Z-VD-fmk to block DNA laddering was tested using antiFas-treated Jurkat cells. Jurkat cells were plated in 60 mm dishes at a density of 5×10^6 cells and pre-incubated with varying concentrations of Z-VD-fmk. They were then challenged with antiFas at 100 ng/mL for 4 hours, harvested, and pelleted and washed with PBS twice. Genomic DNA was isolated using the method of Eldadah et al. (1996). Briefly, the cells were lysed in 2 mL of 7M guanidine HCl and mixed with 1 mL of Wizard miniprep DNA purification resin (Promega). The resin/DNA complex was washed twice with buffer and the DNA was eluted in TE. 1 to 2 μg of this DNA sample was electrophoresed on a 1% agarose/TBE gel and the gel was stained with ethidium bromide.
Vehicle treated cells which were challenged with antiFas show a characteristic laddering pattern of DNA extending down to about 300 bp. […]

Caspase-8 = target: T4, Caspase-8 (Homo sapiens, UniProt Q14790); experiment: Recombinant caspase assay with Ac-DEVD-AMC, caspase-8; format: biochemical; details: 10 μM Ac-DEVD-AMC, 30 minutes at 37° C.
T4 construct: purchased PharMington (PharMingen, a Becton division company, San Diego, Calif.)
Procedure: as §2

Factor Xa = experiment: Protease inhibition, Factor Xa; format: biochemical
Excerpt: as §3

Cathepsin B = target: T5, Cathepsin B (Homo sapiens, UniProt P07858); experiment: Fluorometric enzyme assay, cathepsin B; format: biochemical; details: native cathepsin, commercial source
T5 construct: Preparations of native cathepsin were acquired from a commercial source; purchased
Procedure: as §1

T4 sequence (Q14790 217-374 limits assumed): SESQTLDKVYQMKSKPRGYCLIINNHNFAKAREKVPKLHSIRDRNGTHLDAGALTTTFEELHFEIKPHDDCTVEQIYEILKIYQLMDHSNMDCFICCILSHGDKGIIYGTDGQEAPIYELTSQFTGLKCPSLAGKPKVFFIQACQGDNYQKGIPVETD

## CC(C)[C@H](NC(=O)OCc1ccccc1)C(=O)NC(CC(=O)O)C(=O)CF (stereo partly drawn) [Cbz-Val-Asp-CH2F, Z-Val-Asp-fmk]
CPP32
  IC50: 43 nM
ICE
  IC50: 20 nM
Caspase-3
  IC50: 19.8 nM
Thrombin
  IC50: > 100000 nM
[1]
  dose inhibiting DNA ladder formation: ≤ 50 nM
Caspase-8
  IC50: 7.2 nM
Factor Xa
  IC50: > 100000 nM
Cathepsin B
  IC50: > 10000 nM

## COC(=O)CC(NC(=O)C(NC(=O)OCc1ccccc1)C(C)C)C(=O)CF (stereo not drawn) [Cbz-Val-Asp(OMe)-CH2F, Z-Val-Asp-fmk Methyl Ester]
CPP32
  IC50: 1100 nM
ICE
  IC50: 900 nM
Thrombin
  IC50: > 100000 nM
Factor Xa
  IC50: > 100000 nM
Cathepsin B
  IC50: 300 nM
